According to publication PMC5002989 (Bioorganic & medicinal chemistry letters, 2016):
Read-outs that look alike come from different tables or passages of the source. Each block holds one compound with its values, some of them ahead of it.

Legend:
VMAT2 = VMAT2 (Rattus norvegicus, UniProt Q01827); experiment: [3H]DA uptake at VMAT2 in rat striatal vesicle preparations; assay type: biochemical
hERG channel = hERG channel (Homo sapiens, UniProt Q12809); experiment: biochemical
[1] = Experimental water solubility, thermodynamic solubility method; assay type: physicochemical; conditions: for solubility: water, Experimentally determined water solubility of the hydrochloride salt

Chain of hERG channel (Q12809 whole entry): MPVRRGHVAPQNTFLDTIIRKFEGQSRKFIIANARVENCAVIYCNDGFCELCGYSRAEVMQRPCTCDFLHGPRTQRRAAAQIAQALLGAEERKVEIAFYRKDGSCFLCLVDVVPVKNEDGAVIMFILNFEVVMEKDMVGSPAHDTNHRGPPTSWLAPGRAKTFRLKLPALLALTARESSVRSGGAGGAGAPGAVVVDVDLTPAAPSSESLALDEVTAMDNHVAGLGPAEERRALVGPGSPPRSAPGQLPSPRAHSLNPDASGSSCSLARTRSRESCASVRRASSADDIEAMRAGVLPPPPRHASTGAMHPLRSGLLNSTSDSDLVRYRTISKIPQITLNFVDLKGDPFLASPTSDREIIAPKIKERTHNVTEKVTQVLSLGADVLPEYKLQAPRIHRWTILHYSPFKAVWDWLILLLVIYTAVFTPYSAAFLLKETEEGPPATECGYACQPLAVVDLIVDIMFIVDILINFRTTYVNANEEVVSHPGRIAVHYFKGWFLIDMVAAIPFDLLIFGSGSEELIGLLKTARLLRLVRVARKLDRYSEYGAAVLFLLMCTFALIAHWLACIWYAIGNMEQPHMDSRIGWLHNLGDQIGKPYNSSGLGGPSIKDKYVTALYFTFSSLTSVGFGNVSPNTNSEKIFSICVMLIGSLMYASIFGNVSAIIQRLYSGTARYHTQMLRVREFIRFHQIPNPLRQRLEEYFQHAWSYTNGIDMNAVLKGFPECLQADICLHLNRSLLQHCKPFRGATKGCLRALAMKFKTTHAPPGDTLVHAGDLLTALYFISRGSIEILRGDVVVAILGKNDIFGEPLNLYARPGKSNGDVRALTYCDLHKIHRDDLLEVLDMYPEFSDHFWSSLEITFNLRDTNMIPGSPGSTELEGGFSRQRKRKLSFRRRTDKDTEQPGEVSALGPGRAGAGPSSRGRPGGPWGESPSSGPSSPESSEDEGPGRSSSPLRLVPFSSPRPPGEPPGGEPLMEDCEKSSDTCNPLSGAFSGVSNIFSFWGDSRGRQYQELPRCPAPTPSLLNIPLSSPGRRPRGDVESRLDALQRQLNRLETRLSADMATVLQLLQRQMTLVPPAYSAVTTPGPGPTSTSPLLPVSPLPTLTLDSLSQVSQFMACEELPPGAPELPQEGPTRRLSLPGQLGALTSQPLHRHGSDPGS
Chain of VMAT2 (Q01827 whole entry): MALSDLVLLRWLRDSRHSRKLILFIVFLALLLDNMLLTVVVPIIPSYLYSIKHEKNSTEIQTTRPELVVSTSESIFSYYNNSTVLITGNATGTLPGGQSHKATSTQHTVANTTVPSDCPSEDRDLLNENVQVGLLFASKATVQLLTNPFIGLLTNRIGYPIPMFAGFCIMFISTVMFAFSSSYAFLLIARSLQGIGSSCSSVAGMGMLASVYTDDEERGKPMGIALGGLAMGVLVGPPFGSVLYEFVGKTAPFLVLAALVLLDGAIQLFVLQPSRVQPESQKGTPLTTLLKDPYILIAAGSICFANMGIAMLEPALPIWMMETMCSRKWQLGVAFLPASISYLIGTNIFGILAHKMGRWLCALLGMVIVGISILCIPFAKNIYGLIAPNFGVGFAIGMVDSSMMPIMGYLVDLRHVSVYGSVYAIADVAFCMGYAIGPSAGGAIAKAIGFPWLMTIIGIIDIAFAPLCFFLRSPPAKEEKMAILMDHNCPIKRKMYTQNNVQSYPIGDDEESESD

[3H]DA uptake Ki in comparison to lobelane (VMAT2): not different from lobelane
SMILES: Cl.Cl.Fc1ccc(CCN2CCN(CCc3ccc(F)cc3)CC2)cc1 [Compound 6f]

SMILES: CN1[C@@H](CCc2ccccc2)CCC[C@H]1CCc1ccccc1 [Lobelane (2), lobelane]
Ki (hERG channel): 238 ± 38.9 nM

SMILES: COc1ccccc1CCN1CCN(CCc2ccccc2OC)CC1.Cl.Cl [Compound 6b]
Experimentally determined water solubility of the hydrochloride salt ([1]; listed as C00014): 25.0 mg/mL | solubility [1]: 33.3 mg/mL

SMILES: Cl.Cl.Clc1ccccc1CCN1CCN(CCc2ccccc2Cl)CC1 [Compound 6e]
Experimentally determined water solubility of the hydrochloride salt ([1]; listed as C00020): 13.5 mg/mL | solubility [1]: 25 mg/mL

SMILES: COc1ccccc1CCN1CCN(CCc2ccccc2)CC1.Cl.Cl [Compound 9a]
Experimentally determined water solubility of the hydrochloride salt [1]: 13.5 mg/mL | Experimentally determined water solubility of the hydrochloride salt ([1]; listed as C00004): 33.3 mg/mL
